Assay results: patent publication US6653135B1, “Dynamic protein signature assay” (University of Maryland, priority 2000, dated 2003)

What was measured:
Mytilus edulis = assay: Protein expression signature by 2D electrophoresis of whole body homogenate after 7 day exposure
Description: Protein expression signatures, including those proteins induced and those proteins suppressed by exposure, were isolated for each treatment group.
Eight blue mussels Mytilus edulis 2-3 cm in size were collected from a natural population 3M deep. Ambient salinity and temperature were a salinity of 6.3 ppt and a temperature of 7° C. The mussels were put in tanks for acclimation for 24 hours at the same temperature and salinity as collection. […] Water was changed every other day and continuously aerated. At the end of the 7 day exposure, mussels were removed from the shell and flash frozen in liquid nitrogen before being freeze dried for later analysis.
Freeze dried whole body tissue was mechanically homogenized in cold buffer containing phenyl-methylsulfonyl fluoride and dithiothreotol (PMSF and DTT, protease inhibitors) and tris buffer pH 5.5. After mechanical homogenization, samples were boiled to further break down cells, and cellular debris was removed by centrifugation (13000×g for 5 min). Total protein concentration was determined using methods based on the Bradford method (Biorad).
The supernatant containing the soluble protein fraction was separated using two dimensional electrophoresis (Biorad Miniprotean II™). […] Gels from each treatment were compared for changes in pattern and key components using Medical Electrophoresis Analysis Interactive Expert System (MELANIE II™) 2D analysis software (Biorad) and data compiled using a database developed by this laboratory. Composite gels were produced from each treatment set and compared to one another. Proteins uniquely present (induced (expressed)) or absent (suppressed) in each treatment were identified. Those present or absent in all the original component gels were included in the protein expression signature (PES) for each treatment.

[1] = test system: Mytilus edulis gill tissue; assay: Protein expression changes in gill tissue by 2D electrophoresis after 24 h exposure
Description: Gill tissue previously flash frozen in liquid nitrogen was mechanically homogenized in cold buffer containing phenyl-methylsulfonyl fluoride and dithiothreotol (PMSF and DTT, protease inhibitors). Cellular debris was removed by centrifugation (13000×g for 5 min). Total protein concentration of the supernatant containing the soluble protein fraction was determined using the Bradford method.
Spots on each gel were detected and compared using Medical Electrophoresis Analysis Interactive Expert System (MELANIE II™) 2D analysis software (Biorad). […] Those spots detectable on the treatment composites only were considered present. Each spot of interest, present or absent, on the treatment composites was identified on all original gels from a treatment group before being considered part of the protein expression signature.

[2] = 7 days exposure, 70 ppb copper, 1 ppb Aroclor 1248, whole body
[3] = signature proteins also found with 70 ppb copper combined with lowered salinity (3 ppt), 7 days
[4] = 20, 40, 60, 80 ppb CuSO4, 24 hrs

SMILES | Proteins of the signature identified in organisms treated with copper and lowered salinity simultaneously (Mytilus edulis; 70 ppb copper plus salinity 3 ppt, 7 days) | Protein expression signature (induced and suppressed), number of proteins (Mytilus edulis; 7 days exposure, 70 ppb copper, 1 ppb Aroclor 1248) | Unique Induction: number of proteins specifically induced (present) (Mytilus edulis; [2]) | Unique Suppression: number of proteins specifically suppressed (absent) (Mytilus edulis; [2]) | Copper/Salinity shared signal, induced proteins (Mytilus edulis; [3]) | Copper/Salinity shared signal, suppressed proteins (Mytilus edulis; [3]) | Protein spots absent at all treatment levels compared to controls [1, 4] | Protein spots present at all treatment levels compared to controls [1, 4] | Key Protein Changes (number of key proteins present and absent specifically) ([1]; 20 ppb CuSO4, 24 hrs, gill tissue) | Number of proteins specifically absent at a single dosage level ([1]; 20 ppb, 24 hrs) | Key Protein Changes (number of key proteins present and absent specifically) ([1]; 40 ppb CuSO4, 24 hrs, gill tissue) | Key Protein Changes (number of key proteins present and absent specifically) ([1]; 60 ppb CuSO4, 24 hrs, gill tissue) | Key Protein Changes (number of key proteins present and absent specifically) ([1]; 80 ppb CuSO4, 24 hrs, gill tissue) | Number of proteins specifically absent at a single dosage level ([1]; 80 ppb, 24 hrs) | Key Protein Changes (number of key proteins present and absent) ([1]; All Dosages (20, 40, 60, 80 ppb CuSO4), 24 hrs, gill tissue)
[Cu] [Copper, copper] | Five | 23 proteins | 13 proteins | 10 proteins | 3 proteins | 2 proteins |  |  |  |  |  |  |  |  | 
O=S(=O)([O-])[O-].[Cu+2] [CuSO4, copper sulfate] |  |  |  |  |  |  | 2 spots | 11 protein spots | 27 | 14 protein spots | 14 | 19 | 10 | 6 protein spots | 13
